# Like-named read-outs stand apart in the source and are kept apart here.
# What was measured:
# [1] = Plasma stability assay, monkey plasma; format: in vitro ADME, cynomolgus monkey; details: 2 μM, 37° C.
# Description: (§1) Plasma stability determination of the test compounds in rat, dog, cynomolgus monkey and human plasma is performed using HPLC-MS. For rat, incubations are carried out in 96-well polypropylene plates in 5 aliquots of 70 μL each (one for each time point). […] Five time points are analyzed (0, 15, 120, 480 and 1440 min). […] All incubations are performed in duplicates. The samples are analyzed by HPLC-MS. The percentage of parent compound remaining after incubation in plasma is determined.
# [2] = Liver S9 fraction stability, monkey; format: in vitro ADME, cynomolgus monkey; details: monkey liver S9, 1.0 mg/ml S9 protein, 2 μM, 37° C.
# Description: (§2) Liver S9 fraction stability determination of the test compounds in dog, cynomolgus monkey and human is performed using HPLC-MS. Test compound (2 μM, 0.1% DMSO, 1% Methanol final concentration) was assessed for stability in a 50 μl phosphate buffer containing 1.0 mg/ml S9 protein from each of the three species and 5 mM D-saccharic acid-1, 4-lactone. Samples were incubated at 37° C. for 60 minutes and the % compound remaining was assessed.
# [3] = Plasma stability assay, dog plasma; format: in vitro ADME; details: 2 μM, 37° C.
# Description: as §1
# [4] = Liver S9 fraction stability, human; format: in vitro ADME; details: human liver S9, 1.0 mg/ml S9 protein, 2 μM, 37° C.
# Description: as §2
# [5] = Plasma stability assay, rat plasma; format: in vitro ADME; details: 10 μM, 37° C.
# How it was run: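 Rat, dog, cynomolgus monkey and human plasma incubated in duplicate; rat sampled at 0, 15, 120, 480 and 1440 min. Dog, monkey and human used 2 μM compound (final), 1% solvent, 37° C., sampled at 0, 10, 30, 60 and 120 min. HPLC-MS gave % parent remaining.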
# [6] = Liver S9 fraction stability, dog; format: in vitro ADME; details: dog liver S9, 1.0 mg/ml S9 protein, 2 μM, 37° C.
# Description: as §2
# [7] = Plasma stability assay, human plasma; format: in vitro ADME; details: 2 μM, 37° C.
# Description: as §1
# [8] = target: T1, DOR (Homo sapiens, UniProt P41143); assay: Opioid receptor binding assay, DOR ([3H]-DADLE); details: MaxDose 10000 nM
# T1 construct: expressed in transfected cells
# T1 sequence (P41143 whole entry): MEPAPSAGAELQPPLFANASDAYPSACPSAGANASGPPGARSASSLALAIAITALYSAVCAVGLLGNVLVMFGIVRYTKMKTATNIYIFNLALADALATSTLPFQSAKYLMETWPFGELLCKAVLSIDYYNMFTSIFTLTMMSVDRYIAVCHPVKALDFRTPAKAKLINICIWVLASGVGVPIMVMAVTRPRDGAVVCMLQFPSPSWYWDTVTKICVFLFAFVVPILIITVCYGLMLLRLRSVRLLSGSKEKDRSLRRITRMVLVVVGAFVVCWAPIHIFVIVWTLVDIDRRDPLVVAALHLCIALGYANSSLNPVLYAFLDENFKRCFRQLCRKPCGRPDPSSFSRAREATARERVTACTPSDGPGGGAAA
# Description: Receptor binding assays were performed to assess the ability of compounds to inhibit binding to radiolabeled ligand.
# The stable cell lines were established and prepared cell membrane obtained using these cell lines.
# 3) Assay Procedure 1) Transfer 1 μl of specified concentration compound to assay plate according to the plate map for nonspecific binding. Transfer 1 μl of DMSO to assay plate according to plate map for total binding. 2) Follow the plate map. Dispense 99 μl of membrane stocks into the plate. 3) Add 100 μl of radio ligand. 4) Seal the plates. Incubate at RT for 1 hour. 5) Soak the Unifilter-96 GF/C filter plates with 50 μl of 0.3% PEI per well for at least 0.5 hour at room temperature. 6) When binding assays are completed, filter the reaction mixture through GF/C plates using Perkin Elmer Filtermate Harvester, and then wash each plate for 4 times with cold wash buffer. 7) Dry the filter plates for 1 hour at 50 degrees. 8) After drying, seal the bottom of the filter plate wells using Perkin Elmer Unifilter-96 backing seal tape. Add 50 μl of Perkin Elmer Microscint 20 cocktail. Seal top of filter plates with Perkin Elmer TopSeal-A sealing film. 9) Count ^3H trapped on filter using Perkin Elmer MicroBeta2 Reader second day. 10) Analyze the data with GraphPad Prism 5. Calculate the “Inhibition [% Control]” using the equation: % Inh=(1-Background subtracted Assay value/Background subtracted HC value)*100. Results
# [9] = heating temp. 40 °C, obs. temp. 40 °C
# [10] = heating temp. 60 °C, obs. temp. 25 °C
SMILES,% remaining at time point ([1]; 0 min) [%],% remaining at time point ([1]; 15 min (head)) [%],% remaining at time point ([1]; 120 min (head)) [%],% remaining at time point ([1]; 480 min (head)) [%],% remaining at time point ([1]; 1440 min (head)) [%],Approximate Solubility (mg/mL) in Excipient: Cottonseed oil [10] [mg/mL],Approximate Solubility (mg/mL) in Excipient: Sesame oil [10] [mg/mL],Equilibrium solubility (mg/mL) Water [9] [mg/mL],% remaining at 60 minutes [2] [%],% remaining at time point ([3]; 0 min) [%],% remaining at time point ([3]; 15 min (head)) [%],% remaining at time point ([3]; 120 min (head)) [%],% remaining at time point ([3]; 480 min (head)) [%],% remaining at time point ([3]; 1440 min (head)) [%],% remaining at 60 minutes [4] [%],% remaining at time point ([5]; 0 min) [%],% remaining at time point ([5]; 15 min) [%],% remaining at time point ([5]; 120 min) [%],% remaining at time point ([5]; 480 min) [%],% remaining at time point ([5]; 1440 min) [%],further results
"C=C1CC[C@@]2(O)C3Cc4ccc(OC(=O)CCCCCCC/C=C/CCCCCCCC)c5c4[C@@]2(CCN3CC2CC2)[C@H]1O5 [Compound 15, (4aS,7aS,12bS)-3-(cyclopropylmethyl)-4a-hydroxy-7-methylene-2,3,4,4a,5,6,7,7a-octahydro-1H-4,12-methanobenzofuro[3,2-e]isoquinolin-9-yl (E)-octadec-9-enoate]",100,74.5,72.7,80.6,76.5,>402.6,>396.5,<0.0002,76.7,100,82.5,80.6,90.1,86.1,59.8,100,72,69.3,52,35,"Approximate Solubility (mg/mL) in Excipient: Cottonseed oil [9]: <51 mg/mL; Approximate Solubility (mg/mL) in Excipient: Cottonseed oil (heating temp. 60 °C, obs. temp. 40 °C): >401 mg/mL; Approximate Solubility (mg/mL) in Excipient: Ethanol (Ethanol, heating temp. 40 °C, obs. temp. 40 °C): <20 mg/mL; Approximate Solubility (mg/mL) in Excipient: Sesame oil [9]: <52 mg/mL; % remaining at 60 minutes [6]: 80.9%; % remaining at time point ([7]; 0 min): 100%; % remaining at time point ([7]; 15 min (head)): 83.3%; % remaining at time point ([7]; 120 min (head)): 82.5%; % remaining at time point ([7]; 480 min (head)): 107.1%; % remaining at time point ([7]; 1440 min (head)): 109.0%"
"C=C1CC[C@@]2(O)C3Cc4ccc(OCOC(=O)CCCCCCCCCCCCC)c5c4[C@@]2(CCN3CC2CC2)[C@H]1O5 [Compound 45, (((4aS,7aS,12bS)-3-(cyclopropylmethyl)-4a-hydroxy-7-methylene-2,3,4,4a,5,6,7,7a-octahydro-1H-4,12-methanobenzofuro[3,2-e]isoquinolin-9-yl)oxy)methyl tetradecanoate]",–,–,–,–,–,>402,267 to 288,<0.001,–,–,–,–,–,–,–,–,–,–,–,–,% Inh@MaxDose [8]: 73.8%
"C=C1CC[C@@]2(O)C3Cc4ccc(OCOC(=O)OCCCCCCCCCCCC)c5c4[C@@]2(CCN3CC2CC2)[C@H]1O5 [Compound 24, (((4aS,7aS,12bS)-3-(cyclopropylmethyl)-4a-hydroxy-7-methylene-2,3,4,4a,5,6,7,7a-octahydro-1H-4,12-methanobenzofuro[3,2-e]isoquinolin-9-yl)oxy)methyl dodecyl carbonate]",100,90.7,93.5,96.2,97.8,>403,338 to 368,<0.001,3,100,94.7,104.5,115.7,116.2,3.5,100,32,11.8,8.2,3,% remaining at 60 minutes [6]: 3.6%; % remaining at time point ([7]; 0 min): 100%; % remaining at time point ([7]; 15 min (head)): 94%; % remaining at time point ([7]; 120 min (head)): 102.3%; % remaining at time point ([7]; 480 min (head)): 105.3%; % remaining at time point ([7]; 1440 min (head)): 112.5%
"C=C1CC[C@@]2(O)C3Cc4ccc(OC(=O)OCCCCCCCCCCCCCCC)c5c4[C@@]2(CCN3CC2CC2)[C@H]1O5 [Compound 32, (4aS,7aS,12bS)-3-(cyclopropylmethyl)-4a-hydroxy-7-methylene-2,3,4,4a,5,6,7,7a-octahydro-1H-4,12-methanobenzofuro[3,2-e]isoquinolin-9-yl pentadecyl carbonate]",–,–,–,–,–,>395.8,>410,–,–,–,–,–,–,–,–,–,–,–,–,–,% Inh@MaxDose [8]: 43.2%
"CCCCCCCCCCCC(=O)OCN1C(=O)CCc2ccc(OCCCCN3CCN(c4cccc(Cl)c4Cl)CC3)cc21 [Aripiprazole Lauroxil, reference compound]",100,95.2,94.5,75.5,83.2,–,–,–,56.6,100,103,81.3,78.6,74.3,47.8,100,84,85.5,76.4,46,% remaining at 60 minutes [6]: 66.1%; % remaining at time point ([7]; 0 min): 100%; % remaining at time point ([7]; 15 min (head)): 99.7%; % remaining at time point ([7]; 120 min (head)): 80%; % remaining at time point ([7]; 480 min (head)): 73.2%; % remaining at time point ([7]; 1440 min (head)): 75.5%
